# Data as given in PubChem BioAssay AID1745844 (Carcinogenic Potency Database (CPDB), 2022).
# Calls of active or inactive are those of the source. No rule for the calls is given here.
# Test system: rodent lifetime carcinogenesis bioassay, tumor incidence TD50
# Experiment: chronic cancer bioassays in animals – CPDB, compiled studies (AID 1745844)
structure (smiles),measurement,setting,value
OCCO,carcinogen call,"mouse, strain B6C3F1, females, in feed, site: any site (literature study), lesion: several types, types named in the paper, dosed 103 weeks, study length 105 weeks",negative (inactive)
same,TD50,"mouse, strain B6C3F1, females, in feed, site: lung, lesion: alveolar/bronchiolar adenoma + alveolar/bronchiolar carcinoma, dosed 103 weeks, study length 105 weeks",11300 mg/kg/day
same,TD50,"mouse, strain B6C3F1, males, in feed, site: Harderian gland, lesion: adenoma + carcinoma, dosed 103 weeks, study length 104 weeks",19200 mg/kg/day (inactive)
same,TD50,"mouse, strain B6C3F1, males, in feed, site: any site (literature study), lesion: several types, types named in the paper, dosed 103 weeks, study length 104 weeks",9980 mg/kg/day
same,TD50,"mouse, strain B6C3F1, males, in feed, site: liver, lesion: hepatocellular adenoma + hepatocellular carcinoma + neoplastic nodule, dosed 103 weeks, study length 104 weeks",48100 mg/kg/day
O=[N+]([O-])c1ccc(-c2cscn2)o1,TD50,"rat, strain Sprague-Dawley albino, females, in feed, site: any site (literature study), lesion: several types, types named in the paper, dosed 46 weeks, study length 68 weeks",7.68 mg/kg/day
same,TD50,"rat, strain Sprague-Dawley albino, females, in feed, site: forestomach, lesion: squamous-cell carcinoma, dosed 46 weeks, study length 68 weeks",19.5 mg/kg/day
same,TD50,"rat, strain Sprague-Dawley albino, females, in feed, site: mammary gland, lesion: fibroadenoma, dosed 46 weeks, study length 68 weeks",15.6 mg/kg/day
OCCN(CCO)C(=S)S,TD50,"mouse, strain B6AKF1, females, oral dosing, site: any site (literature study), lesion: several types, types named in the paper, dosed 79 weeks, study length 79 weeks",138 mg/kg/day
same,TD50,"mouse, strain B6AKF1, females, oral dosing, site: liver, lesion: hepatoma, dosed 79 weeks, study length 79 weeks",298 mg/kg/day
same,TD50,"mouse, strain B6AKF1, females, oral dosing, site: lung, lesion: adenoma, dosed 79 weeks, study length 79 weeks",850 mg/kg/day
same,TD50,"mouse, strain B6AKF1, males, oral dosing, site: any site (literature study), lesion: several types, types named in the paper, dosed 79 weeks, study length 79 weeks",45.6 mg/kg/day
same,TD50,"mouse, strain B6AKF1, males, oral dosing, site: liver, lesion: hepatoma, dosed 79 weeks, study length 79 weeks",41.5 mg/kg/day
same,TD50,"mouse, strain B6C3F1, females, oral dosing, site: any site (literature study), lesion: several types, types named in the paper, dosed 79 weeks, study length 79 weeks",48.4 mg/kg/day
same,TD50,"mouse, strain B6C3F1, females, oral dosing, site: liver, lesion: hepatoma, dosed 79 weeks, study length 79 weeks",56.4 mg/kg/day
same,TD50,"mouse, strain B6C3F1, females, oral dosing, site: lung, lesion: adenoma, dosed 79 weeks, study length 79 weeks",1080 mg/kg/day
same,TD50,"mouse, strain B6C3F1, males, oral dosing, site: any site (literature study), lesion: several types, types named in the paper, dosed 79 weeks, study length 79 weeks",27.8 mg/kg/day
same,TD50,"mouse, strain B6C3F1, males, oral dosing, site: liver, lesion: hepatoma, dosed 79 weeks, study length 79 weeks",34.5 mg/kg/day
NNc1nc(-c2ccc(N)cc2)cs1,TD50,"mouse, strain Swiss, females, in feed, site: all sites, lesion: lymphocytic leukemia, dosed 46 weeks, study length 66 weeks",11.3 mg/kg/day
same,TD50,"mouse, strain Swiss, females, in feed, site: any site (literature study), lesion: several types, types named in the paper, dosed 46 weeks, study length 66 weeks",11.3 mg/kg/day
same,TD50,"rat, strain Sprague-Dawley, females, in feed, site: all sites, lesion: lymphoblastic lymphoma, dosed 46 weeks, study length 75 weeks",7.09 mg/kg/day
same,TD50,"rat, strain Sprague-Dawley, females, in feed, site: any site (literature study), lesion: several types, types named in the paper, dosed 46 weeks, study length 75 weeks",0.582 mg/kg/day
same,TD50,"rat, strain Sprague-Dawley, females, in feed, site: mammary gland, lesion: adenocarcinoma, dosed 46 weeks, study length 75 weeks",1.02 mg/kg/day
same,TD50,"rat, strain Sprague-Dawley, females, in feed, site: mammary gland, lesion: several types, types named in the paper, dosed 46 weeks, study length 75 weeks",1.03 mg/kg/day
C=CC(OC(C)=O)c1ccc2c(c1)OCO2 (stereo unspecified),TD50,"rat, strain Charles River CD (Sprague-Dawley), males, in feed, site: any site (literature study), lesion: several types, types named in the paper, dosed 36 weeks, study length 52 weeks",21.1 mg/kg/day
same,TD50,"rat, strain Charles River CD (Sprague-Dawley), males, in feed, site: any site (literature study), lesion: several types, types named in the paper, dosed 47 weeks, study length 69 weeks",32.4 mg/kg/day
same,TD50,"rat, strain Charles River CD (Sprague-Dawley), males, in feed, site: forestomach, lesion: papilloma, dosed 36 weeks, study length 52 weeks",21.1 mg/kg/day
same,TD50,"rat, strain Charles River CD (Sprague-Dawley), males, in feed, site: forestomach, lesion: papilloma, dosed 47 weeks, study length 69 weeks",30.7 mg/kg/day
same,carcinogen call,"rat, strain Charles River CD (Sprague-Dawley), males, in feed, site: liver, lesion: carcinoma, dosed 47 weeks, study length 69 weeks",negative (inactive)
same,TD50,"rat, strain Charles River CD (Sprague-Dawley), males, in feed, site: liver, lesion: hepatocellular carcinoma, dosed 36 weeks, study length 52 weeks",348 mg/kg/day (inactive)
NNC=O,TD50,"mouse, strain Swiss albino, females, in drinking water, site: liver, lesion: several types, types named in the paper, dosed 83 weeks, study length 83 weeks",6860 mg/kg/day
same,TD50,"mouse, strain Swiss albino, females, in drinking water, site: lung, lesion: several types, types named in the paper, dosed 83 weeks, study length 83 weeks",36 mg/kg/day
same,TD50,"mouse, strain Swiss albino, males, in drinking water, site: liver, lesion: several types, types named in the paper, dosed 83 weeks, study length 83 weeks",1150 mg/kg/day
same,carcinogen call,"mouse, strain Swiss albino, males, in drinking water, site: lung, lesion: several types, types named in the paper, dosed 83 weeks, study length 83 weeks",positive
CCCCCNN,TD50,"mouse, strain Swiss albino, females, in drinking water, site: blood vessels, lesion: angioma, dosed 94 weeks, study length 94 weeks",71.9 mg/kg/day
same,TD50,"mouse, strain Swiss albino, females, in drinking water, site: blood vessels, lesion: angiosarcoma, dosed 94 weeks, study length 94 weeks",82.2 mg/kg/day
same,TD50,"mouse, strain Swiss albino, females, in drinking water, site: blood vessels, lesion: several types, types named in the paper, dosed 94 weeks, study length 94 weeks",35.5 mg/kg/day
same,TD50,"mouse, strain Swiss albino, females, in drinking water, site: liver, lesion: several types, types named in the paper, dosed 94 weeks, study length 94 weeks",223 mg/kg/day
same,TD50,"mouse, strain Swiss albino, females, in drinking water, site: lung, lesion: adenocarcinoma, dosed 94 weeks, study length 94 weeks",18.7 mg/kg/day
same,TD50,"mouse, strain Swiss albino, females, in drinking water, site: lung, lesion: adenoma, dosed 94 weeks, study length 94 weeks",7.95 mg/kg/day
same,TD50,"mouse, strain Swiss albino, females, in drinking water, site: lung, lesion: several types, types named in the paper, dosed 94 weeks, study length 94 weeks",5.87 mg/kg/day
same,TD50,"mouse, strain Swiss albino, males, in drinking water, site: blood vessels, lesion: several types, types named in the paper, dosed 94 weeks, study length 94 weeks",65.6 mg/kg/day
same,TD50,"mouse, strain Swiss albino, males, in drinking water, site: liver, lesion: several types, types named in the paper, dosed 94 weeks, study length 94 weeks",271 mg/kg/day
same,TD50,"mouse, strain Swiss albino, males, in drinking water, site: lung, lesion: adenoma, dosed 94 weeks, study length 94 weeks",30 mg/kg/day
same,TD50,"mouse, strain Swiss albino, males, in drinking water, site: lung, lesion: several types, types named in the paper, dosed 94 weeks, study length 94 weeks",46.9 mg/kg/day
C/C(=C(\CCOC(=O)c1ccccc1)SC(=O)c1ccccc1)N(C=O)Cc1cnc(C)nc1N,TD50,"rat, strain Sprague-Dawley, females, in feed, site: any site (literature study), lesion: malignant tumor, dosed 105 weeks, study length 105 weeks",14300 mg/kg/day (inactive)
same,carcinogen call,"rat, strain Sprague-Dawley, females, in feed, site: any site (literature study), lesion: several types, types named in the paper, dosed 105 weeks, study length 105 weeks",negative (inactive)
same,carcinogen call,"rat, strain Sprague-Dawley, females, in feed, site: liver, lesion: hemangiosarcoma anaplastic, dosed 105 weeks, study length 105 weeks",negative (inactive)
same,TD50,"rat, strain Sprague-Dawley, males, in feed, site: any site (literature study), lesion: malignant tumor, dosed 105 weeks, study length 105 weeks",2340 mg/kg/day (inactive)
same,carcinogen call,"rat, strain Sprague-Dawley, males, in feed, site: any site (literature study), lesion: several types, types named in the paper, dosed 105 weeks, study length 105 weeks",negative (inactive)
same,TD50,"rat, strain Sprague-Dawley, males, in feed, site: liver, lesion: liver-cell tumor, benign, dosed 105 weeks, study length 105 weeks",6980 mg/kg/day (inactive)
same,TD50,"rat, strain Sprague-Dawley, males, in feed, site: liver, lesion: liver-cell tumor, malignant, dosed 105 weeks, study length 105 weeks",6770 mg/kg/day (inactive)
CN(C)CCN(Cc1cccs1)c1ccccc1,carcinogen call,"rat, strain Fischer 344, females, in drinking water, site: liver, lesion: several types, types named in the paper, dosed 82 weeks, study length 130 weeks",negative (inactive)
same,TD50,"rat, strain Fischer 344, females, in drinking water, site: thyroid follicle, lesion: several types, types named in the paper, dosed 82 weeks, study length 130 weeks",487 mg/kg/day (inactive)
same,carcinogen call,"rat, strain Fischer 344, males, in drinking water, site: liver, lesion: several types, types named in the paper, dosed 82 weeks, study length 130 weeks",negative (inactive)
same,carcinogen call,"rat, strain Fischer 344, males, in drinking water, site: thyroid follicle, lesion: several types, types named in the paper, dosed 82 weeks, study length 130 weeks",negative (inactive)
